Tests used:
myoglobin = test: Muscle damage biomarker myoglobin in adults with BMD; type: in vivo, human
Experimental: (§1) FIGS. 10 to 13 depict promising 12-month results from the ongoing open label, single-center study assessing the safety, tolerability, and impact on muscle damage biomarkers, and pharmacokinetics (PK) of Compound 1 in adults with BMD. The different dosing regimens depicted in FIGS. 10A-10C, FIG. 111B, and FIGS. 12A-12F were carried out in three cohorts. One cohort has been dosed with 20 mg of Compound 1 for 12 months. A second cohort has been dosed with 15 mg of Compound 1 for 6 months. A third cohort has been dosed with 10 mg of Compound 1 for 2 months. […] Therefore, no treatment plans were discontinued due to AEs.
(§2) Several biomarkers of muscle damage were tested to evaluate the efficacy of Compound 1 with different dosing regimens.

[1] = tested on: fast skeletal muscle troponin I (TNNI2); test: Muscle damage biomarker fast skeletal muscle troponin I in adults with BMD (ELISA / SOMAscan); type: in vivo, human
Experimental: (§3) FIGS. 2 to 8 depict positive 4-month interim results from the ongoing open label, single-center study assessing the safety, tolerability, and impact on muscle damage biomarkers, and pharmacokinetics (PK) of Compound 1 in adults with BMD. Twelve adults with BMD enrolled in the ARCH study, were dose escalated to daily 15 mg oral doses of Compound 1 at night after having initially received a 10 mg dose during the first 2 months of the study. […] All eligible patients have subsequently been dose escalated to 20 mg daily as per protocol.
(§4) Treatment with Compound 1 led to a significant decrease in key biomarkers of muscle damage when assessed by laboratory assays. Importantly, CK and fast skeletal muscle troponin I were reduced by an average of 29% and 73%, respectively, after 4 months (FIG. 5).
as §2
(§5) Changes in muscle injury biomarkers such as creatine kinase (CK) or fast skeletal muscle troponin I (TNNI2) were assessed in clinical trial participants. The abundance of the biomarkers were measured by plasma proteomics (SOMAscan) in short- (1-2 months), mid- (3-4 months), or long-term (6-12 months) treatment. FIG. 14A illustrates the design of this study. 12 BMD participants, 7 of whom participated in the Phase I MAD study (Example 2), were enrolled and initially treated with 10 mg of Compound 1 daily, with dose-escalation from 10 mg to 20 mg daily as shown. Blood draws were taken at pre-dose baseline, then at regular intervals thereafter for analysis by SOMAscan, as well as quantification of CK activity or TNNI2 concentration by an activity assay or ELISA. SOMAscan is a multistep modified aptamer-based assay for highOthroughpu, sensitive, and unbiased biomarker measurement. Proteins in the samples were selectively bound with fluorescent aptamers, which were then measured on a chip array to yield values proportion to absolute concentrations.
(§6) In this study, SOMAscan was correlated to CK and TNNI2 to allow for direct conversion to absolute concentrations as well as used to identify large-scale proteomic differences between short- and long-term treatment with Compound 1. FIG. 14B illustrates validation of CK and TNNI2, where a strong correlation between SOMAscan and absolute measurements of CK (left) and TNNI2 (right) was observed. FIG. 14C illustrates SOMAscan-quantified CK and TNNI2 in blood. […] Indicated significance was for all values at that treatment point relative to pre-dose baseline. FIG. 14D and FIG. 14E illustrate the effect of Compound 1 on muscle injury proteins. SOMAscan was used to analyze the effects of treatment on a set of proteins identified to correlate with bona-fide contraction-induced skeletal muscle injury (FIG. 14D).

[2] = Muscle versus plasma concentration, muscle biopsy data from Phase 1 multiple ascending dose (MAD) study; type: in vivo, human
Experimental: (§7) In parallel, the plasma concentrations of Compound 1 were also monitored across different dosing regimens. For group with higher dosage (e.g., the 20 mg group), there were patients with high exposures or low exposures. It was unexpected that the patients with high exposures reached to a range of plasma concentration after dosing with 20 mg/day, which was more than 4-fold higher than the target exposures predicted from preclinical models. It is also worth noting that Compound 1 was enriched in muscle. The target muscle concentration of Compound 1 from patients with lower plasma concentration were 1,000-4000 ng/g from preclinical experiments. Using muscle biopsy data from a Phase 1 multiple ascending dose (MAD) study, this equates to approximately 15-70 ng/ml in BMD. In other words, Compound 1 was enriched by about 60 fold in muscle compared to plasma.

muscle injury proteins = test: SOMAscan plasma proteomics, muscle injury proteins, BMD participants; type: in vivo, human
Experimental: as §5
In this study, SOMAscan was correlated to CK and TNNI2 to allow for direct conversion to absolute concentrations as well as used to identify large-scale proteomic differences between short- and long-term treatment with Compound 1. […] FIG. 14C illustrates SOMAscan-quantified CK and TNNI2 in blood. […]

creatine kinase (CK) = test: Muscle damage biomarker creatine kinase in adults with BMD (activity assay / SOMAscan); type: in vivo, human
Experimental: as §3, §4, §2, §5, §6

adults with BMD [3] = test: North Star Ambulatory Assessment (NSAA) in adults with BMD; type: in vivo, human; settings: for NSAA outcome: 20 mg group
Source text: After 4 months of Compound 1 dosing, NSAA increased by an average of 1.17 points compared to pre-therapy baseline. […] The NSAA improvements observed after only 4 months of Compound 1 dosing differ from trajectories observed in the natural history study reported by Bello et al. (2016), one of the most comprehensively characterized BMD cohorts, in which the yearly decline was 1.22 NSAA points.
NSAA scores were also quantified based on FIGS. 9A-9C. Compound 1 stabilized NSAA scores by rescuing the natural history trend by about 1.6 points, and led to a trend towards an improvement in the scores. […] In comparison, the expected natural history decline in untreated patients is around −1.2 to −1.3 points.
Therefore, a lower exposure of Compound 1 (e.g., 10 mg) may have a more desired functional benefit.

[4] = Preclinical experiments, target muscle concentration; type: in vivo; settings: from preclinical experiments
Experimental: as §7

adults with BMD [5] = test: Safety and tolerability in adults with BMD (ARCH open label study); type: in vivo, human
Experimental: as §3, §1

adults with BMD [6] = test: Functional tests (velocity, muscle strength) in adults with BMD; type: in vivo, human
Source text: FIG. 7 depicts increases in functional measures such; walk/run velocity, stair climb velocity, and grip strength in BMD patients at two and four months following the initial administration of Compound 1 in comparison to baseline measurements.
FIGS. 12A-12F depict the functional evaluation after the treatment of Compound 1. FIG. 12A depicts the average 10 m velocity in different dosing regimens. All p-values NS with a 7% decrease at 12 months. Last observation carried forward (all N=12, except for 2 missing values, month 4 and 8). FIG. 12B depicts the average 100 meter velocity in different dosing regimens. All p-values NS with 0% change at 12 months. Last observation carried forward (all N=12, except for 2 missing values, month 4 and 8). FIG. 12C depicts the average 4-stair climb time velocity in different dosing regimens. All p-values NS except that p value for 12 months was 0.016, which was 13% decrease at 12 months. FIG. 12D depicts the average maximum grip strength in different dosing regimens. p-values <0.05 at 4, 6, 8 month and NS at 12 months. There was a 8% decrease at 12 months. FIG. 12E depicts the average maximum knee extension strength in different dosing regimens. P-values <0.05 at 4, 8, 12 month. There was a 25% decrease at 12 months. FIG. 12F depicts the maximum elbow flexion strength in different dosing regimens. All p-values NS, and there was no change at 12 months.
Furthermore, functional tests were carried out to evaluate the functional improvements of muscle in the participants resulted from Compound 1. […] Different parameters of muscle strength were also quantified and evaluated in FIGS. 12D-12F.

[7] = tested on: proinflammatory cytokines and chemokines, anti-inflammatory interleukins; test: SOMAscan plasma proteomics, inflammatory proteins, BMD participants; type: in vivo, human
Experimental: as §5
FIG. 14G and FIG. 14H illustrate favorable shift in inflammatory biomarkers with long-term treatment. […] The observed protein concentration changes after 6-12 months were consistent across study participants (FIG. 14H).

adults with BMD [8] = test: Self-reported pain score in adults with BMD; type: in vivo, human
Source text: FIG. 8 depicts a decrease in the self-reported pain score in BMD patients at two and four months following the initial administration of Compound 1.
BMD individuals usually report more diffuse pain on spine and calves, See Jacques M F et al., Plos ONE (2019). Self-reported pain evaluation was collected and quantified in FIG. 13. […] Therefore, Compound 1 has shown to reduce pain associated with BMD.

[9] = Plasma PK of Compound 1 in adults with BMD (ARCH open label study); type: in vivo, human; parameters: Mean AUC for the Compound 1 Plasma PK levels: unit not given here; settings: for Mean AUC for the Compound 1 Plasma PK levels: BMD patients
Experimental: FIG. 4 depicts plasma levels of Compound 1 and step count of BMD patients after four months of dosing.
as §3, §1, §7

[10] = after 4 months, laboratory assay
[11] = short-term treatment (1-2 months), relative to pre-dose baseline
[12] = two and four months after initial administration (FIG. 7)

- Kp ([2]; human, muscle, read-out: Enrichment in muscle compared to plasma): ~60
- Plasma concentration equating to target muscle concentration ([2]; in BMD, using Phase 1 MAD muscle biopsy data): 15 to 70 ng/mL
- Target muscle concentration of Compound 1 [4]: 1,000-4000 ng/g
- Muscle strength effect (adults with BMD [6]; some participants from the 20 mg group (FIGS. 12C-12F)): muscle strength weakness
- Mean AUC for the Compound 1 Plasma PK levels ([9]; 10 mg dose): 1,454
- Mean AUC for the Compound 1 Plasma PK levels ([9]; 15 mg dose): 2,299
- Mean AUC for the Compound 1 Plasma PK levels ([9]; 20 mg dose): 2,293
- Plasma concentration relative to target exposures predicted from preclinical models ([9]; 20 mg/day, patients with high exposures): more than 4 fold
Structure (SMILES): O=c1ccc(-c2cnc(OCC(F)(F)F)nc2)nn1Cc1cncc(F)c1 [Compound 1]
- Change of myoglobin level (myoglobin; 10 mg dose): near maximal decreases
- Change of myoglobin level (myoglobin; different dosing regimens up to 12 months (FIG. 10C)): sustained decrease
- Change of TNNI2 level ([1]; 10 mg dose): near maximal decreases
- Average reduction of fast skeletal muscle troponin I [1, 10]: 73%
- Patients reaching fast skeletal muscle troponin I levels of unaffected adults ([1]; after 4 months, twelve participants): four patients achieving levels observed in unaffected adults
- Change of TNNI2 level ([1]; different dosing regimens up to 12 months (FIG. 10B)): sustained decrease
- SOMAscan-quantified circulating TNNI2 ([1]; longer-term treatment timepoints): reduced to nearly healthy levels
- SOMAscan-quantified circulating TNNI2 [1, 11]: reduced by short-term treatment
- Muscle injury proteins (SOMAscan) (muscle injury proteins; long-term treatments (6-12 months)): stable levels or further decreases
- Muscle injury proteins (SOMAscan) (muscle injury proteins; short-term treatment (1-2 months, 10 mg)): decreased from pre-dose baseline
- Change of creatine kinase (CK) level (creatine kinase (CK); 10 mg dose): near maximal decreases
- Average reduction of CK (creatine kinase (CK); [10]): 29%
- Change of creatine kinase (CK) level (creatine kinase (CK); different dosing regimens up to 12 months (FIG. 10A)): sustained decrease
- SOMAscan-quantified circulating CK (creatine kinase (CK); [11]): reduced by short-term treatment
- NSAA outcome (adults with BMD [3]; participants under high exposures (negative changes in NSAA)): less optimal outcomes
- NSAA outcome (adults with BMD [3]; participants with the lower exposures): stable or the best improving NSAA scores
- Participants with the same or better NSAA scores (adults with BMD [3]; 12-month group (FIG. 11C)): about 75%
- NSAA rescue of the natural history trend (adults with BMD [3]; 12-month results (FIG. 11A)): about 1.6 points
- Average NSAA increase compared to pre-therapy baseline (adults with BMD [3]; after 4 months of dosing): 1.17 points
- Participants with functional improvement or no decline on NSAA relative to baseline (adults with BMD [3]; after 4 months of dosing): nine of the twelve
- Most common adverse events (adults with BMD [5]; 4-month interim): dizziness, drowsiness, and headache
- Tolerability (adults with BMD [5]; 4-month interim, 10 mg for 2 months then 15 mg daily oral at night, twelve adults with BMD): well-tolerated in all participants with no discontinuations or dose reductions
- Tolerability (adults with BMD [5]; 12-month results, 10, 15 and 20 mg doses): well tolerated at all doses without any severe adverse events
- Deterioration in 10 m velocity (adults with BMD [6]; 12-month results (FIG. 12A)): no statistically significant deterioration
- Deterioration in 100 meter velocity (adults with BMD [6]; 12-month results (FIG. 12B)): no statistically significant deterioration
- Deterioration in 4-stair climb time velocity (adults with BMD [6]; 12-month results (FIG. 12C)): no statistically significant deterioration
- Decrease in average 4-stair climb time velocity (adults with BMD [6]; at 12 months, p 0.016 (FIG. 12C)): 13%
- Decrease in average maximum knee extension strength (adults with BMD [6]; at 12 months, p <0.05 (FIG. 12E)): 25%
- Decrease in average 10 m velocity (adults with BMD [6]; at 12 months, p NS (FIG. 12A)): 7%
- Change in average 100 meter velocity (adults with BMD [6]; at 12 months, p NS (FIG. 12B)): 0%
- Decrease in average maximum grip strength (adults with BMD [6]; at 12 months, p NS (FIG. 12D)): 8%
- Change in maximum elbow flexion strength (adults with BMD [6]; at 12 months, p NS (FIG. 12F)): no change
- Grip strength versus baseline (adults with BMD [6]; [12]): increases
- Stair climb velocity versus baseline (adults with BMD [6]; [12]): increases
- Walk/run velocity versus baseline (adults with BMD [6]; [12]): increases
- Proinflammatory cytokines and chemokines (SOMAscan) ([7]; after 6-12 months): very significantly reduced
- Anti-inflammatory interleukins (SOMAscan) ([7]; after long-term treatment (6-12 months)): increased
- Self-reported pain scores (adults with BMD [8]; after 12 months of treatment (FIG. 13)): positive trend
- Self-reported pain score (adults with BMD [8]; two and four months after initial administration (FIG. 8)): decrease
